Assay results taken from patent publication US5248807A, “Triterpene derivatives” (Shionogi & Co., Ltd., priority 1991, dated 1993).
pIC50: −log10 of the molar value.

Tests used:
[1] = biological target: T1, endothelin-receptor (membrane fraction of porcine heart) (Sus scrofa, UniProt Q29010); experiment: Inhibitory effect on the binding of 125I-endothelin-1 to the receptor, porcine heart membrane; conditions: 25 pM 125I-endothelin-1, 37° C., 1 hour, read-out: IC50 (concentration to inhibit 50% of the specific binding of 125I-endothelin-1)
T1 construct: Membrane fractions were prepared from porcine and rat hearts; from tissue; host or cells: porcine heart, membrane fraction
T1 sequence (Q29010 21-427): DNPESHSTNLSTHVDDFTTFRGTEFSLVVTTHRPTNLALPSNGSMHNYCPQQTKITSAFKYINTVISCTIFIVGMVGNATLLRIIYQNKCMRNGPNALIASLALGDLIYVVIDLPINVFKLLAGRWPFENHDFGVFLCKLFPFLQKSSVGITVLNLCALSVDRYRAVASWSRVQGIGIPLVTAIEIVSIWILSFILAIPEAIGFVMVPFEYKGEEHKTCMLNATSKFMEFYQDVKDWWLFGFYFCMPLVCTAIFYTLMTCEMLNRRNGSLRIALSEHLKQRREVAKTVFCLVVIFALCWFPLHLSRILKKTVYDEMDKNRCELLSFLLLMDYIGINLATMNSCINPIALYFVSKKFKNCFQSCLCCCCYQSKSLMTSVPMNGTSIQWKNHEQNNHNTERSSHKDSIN
Protocol: (§1) Inhibitory Effect on the Binding of ^125 I-Endothelin-1 to the Receptor
(§2) Membrane fractions were prepared from porcine and rat hearts, rat thoracic aorta, and the media of porcine aorta. Each membrane fraction was incubated, in the presence or absence of the present compound 1 with 25 pM of ^125 I-endothelin-1 at 37° C. for 1 hour. After the reaction was completed, ^125 I-endothelin-1 bound to each membrane fraction was separated by rapid filtration through glass fiber filters and its radioactivity was determined with a gamma-counter. The specific binding was calculated by subtracting, from the total binding, the non-specific binding which was determined in the presence of 10^-7 M of non-radioactive endothelin-1. The concentration of the present compound 1 to inhibit 50% of the specific binding (i.e., IC50) is shown at Table 1.

[2] = biological target: T2, endothelin-receptor (membrane fraction of the media from porcine aorta) (Sus scrofa, UniProt Q29010); experiment: Inhibitory effect on the binding of 125I-endothelin-1 to the receptor, media of porcine aorta membrane; conditions: 25 pM 125I-endothelin-1, 37° C., 1 hour, read-out: IC50 (concentration to inhibit 50% of the specific binding of 125I-endothelin-1)
T2 construct: Membrane fractions were prepared from porcine and rat hearts, rat thoracic aorta, and the media of porcine aorta; from tissue; host or cells: media of porcine aorta, membrane fraction
T2 sequence (Q29010 21-427): T1 sequence (Q29010 21-427)
Protocol: as §1, §2

[3] = system: endothelin-1-induced increase in cytosolic calcium ion concentration (rat aortic smooth muscle A7r5 cells); experiment: Inhibition of the endothelin-1-induced increase in cytosolic calcium ion concentration in A7r5 cells; format: cell-based; conditions: fura-2, 1 min pre-incubation, 10^-8 M endothelin-1, read-out: IC50 (concentration to inhibit the endothelin-1-induced increase in cytosolic calcium ion by 50%)
Protocol: Inhibition of the endothelin-1-induced increase in cytosolic calcium ion concentration
To a cuvette was put the suspension of rat aortic smooth muscle A7r5 cells, obtained from Dainippon Pharmaceutical Co., Ltd., loaded with 2 μM of fura-2 (Dojindo), then the change in fluorescence intensity was determined with a calcium analizer (CAF100, Nippon Bunkou Co.). In the determination,the exciting was performed at 340 nm and 380 nm and the recording at 510 nm. Calculation for the concentration of cytosolic calcium ion was performed according to the method of Grynkiewicz et al. (J.Biol.Chem., 260, P. 3440-3450, 1985). The experiment was performed as follows: at first, the present compounds were added to the cell suspension in the cuvette and the mixture was incubated for 1 min. Then, 10^-8 M of endothelin-1 was added thereto and the change in fluorescence intensity was determined. The concentration of the present compounds to inhibit the endothelin-1-induced increase in cytosolic calcium ion by 50%, (i.e., IC50) is shown at Table 2.

[4] = biological target: T3, endothelin-receptor (membrane fraction of rat aorta) (Rattus norvegicus, UniProt P26684); experiment: Inhibitory effect on the binding of 125I-endothelin-1 to the receptor, rat aorta membrane; conditions: 25 pM 125I-endothelin-1, 37° C., 1 hour, read-out: IC50 (concentration to inhibit 50% of the specific binding of 125I-endothelin-1)
T3 construct: Membrane fractions were prepared from porcine and rat hearts, rat thoracic aorta, and the media of porcine aorta; from tissue; host or cells: rat thoracic aorta, membrane fraction
T3 sequence (P26684 21-426): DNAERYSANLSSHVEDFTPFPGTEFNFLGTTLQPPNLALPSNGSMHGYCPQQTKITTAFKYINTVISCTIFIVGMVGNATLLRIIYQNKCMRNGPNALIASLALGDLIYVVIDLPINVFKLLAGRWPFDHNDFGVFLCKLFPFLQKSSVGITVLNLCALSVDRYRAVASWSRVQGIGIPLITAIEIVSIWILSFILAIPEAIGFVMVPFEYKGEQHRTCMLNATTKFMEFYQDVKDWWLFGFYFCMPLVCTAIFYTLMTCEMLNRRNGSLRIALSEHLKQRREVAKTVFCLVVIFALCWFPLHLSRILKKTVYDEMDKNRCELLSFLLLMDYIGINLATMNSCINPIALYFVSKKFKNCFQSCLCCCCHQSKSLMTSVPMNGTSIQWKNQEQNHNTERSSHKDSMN
Protocol: as §1, §2

pIC50 [3]	SMILES	also measured
7.96	CC1(C)CCC2(C(=O)O)CCC3(COC(=O)C=Cc4ccc(O)c(O)c4)C(=CCC4C5(C)CCC(=O)C(C)(C)C5CCC43C)C2C1 (stereo not drawn) [Compound 1]	pIC50 [1]: 7.08; pIC50 [2]: 7.49; pIC50 [4]: 7.25
7.74	CC1(C)CCC2(C(=O)O)CCC3(COC(=O)C=Cc4ccccc4)C(=CCC4C5(C)CCC(=O)C(C)(C)C5CCC43C)C2C1 (stereo not drawn) [Compound 3]	–
7.47	CC(=O)Oc1cccc(C=CC(=O)OCC23CCC4(C(=O)O)CCC(C)(C)CC4C2=CCC2C4(C)CCC(=O)C(C)(C)C4CCC23C)c1 (stereo not drawn) [Compound 4]	–
7.96	CC1(C)CCC2(C(=O)O)CCC3(COC(=O)C=Cc4cccc(O)c4)C(=CCC4C5(C)CCC(=O)C(C)(C)C5CCC43C)C2C1 (stereo not drawn) [Compound 5]	–
7.85	CC1(C)CCC2(C(=O)O)CCC3(COC(=O)C=Cc4cccc(OS(=O)(=O)O)c4)C(=CCC4C5(C)CCC(=O)C(C)(C)C5CCC43C)C2C1 (stereo not drawn) [Compound 6]	–
8.05	CC1(C)CCC2(C(=O)O)CCC3(COC(=O)C=Cc4cccc(OC(=O)CCC(=O)O)c4)C(=CCC4C5(C)CCC(=O)C(C)(C)C5CCC43C)C2C1 (stereo not drawn) [Compound 7]	–
6.59	CC(=O)Oc1cc(C=CC(=O)OCC23CCC4(C(=O)O)CCC(C)(C)CC4C2=CCC2C4(C)CCC(=O)C(C)(C)C4CCC23C)cc(OC(C)=O)c1 (stereo not drawn) [Compound 8]	–
8.35	CC1(C)CCC2(C(=O)O)CCC3(COC(=O)C=Cc4cc(O)cc(O)c4)C(=CCC4C5(C)CCC(=O)C(C)(C)C5CCC43C)C2C1 (stereo not drawn) [Compound 9]	–
6.74	CC(=O)Oc1ccc(C=CC(=O)OCC23CCC4(C(=O)O)CCC(C)(C)CC4C2=CCC2C4(C)CCC(=O)C(C)(C)C4CCC23C)cc1 (stereo not drawn) [Compound 10]	–
7.57	CC1(C)CCC2(C(=O)O)CCC3(COC(=O)C=Cc4ccc(O)cc4)C(=CCC4C5(C)CCC(=O)C(C)(C)C5CCC43C)C2C1 (stereo not drawn) [Compound 11]	–
7.57	CC1(C)CCC2(C(=O)O)CCC3(COC(=O)C=Cc4ccccc4O)C(=CCC4C5(C)CCC(=O)C(C)(C)C5CCC43C)C2C1 (stereo not drawn) [Compound 12]	–
7.60	CC1(C)CCC2(C(=O)O)CCC3(COC(=O)C=Cc4ccccn4)C(=CCC4C5(C)CCC(=O)C(C)(C)C5CCC43C)C2C1 (stereo not drawn) [Compound 13]	–
